Where two headings read alike, the source gives them in different places.
Legend:
[1] = tested on: greenhouse red spider mite (Tetranychus urticae); assay: Tetranychus urticae spray test, OP-resistant (TETRUR), bean leaf disks; type: in vivo; conditions: Tetranychus urticae, foliar, 144 h, read-out: efficacy (spider mites killed)
Protocol: After 6 days, the effect in % is determined.

[2] = tested on: cattle ticks (Boophilus microplus); assay: Boophilus microplus injection test (BOOPMI Inj); type: in vivo; conditions: Rhipicephalus microplus, 168 h, read-out: efficacy (laying of fertile eggs)
Protocol: Solvent: dimethyl sulfoxide
1 μl of the active compound solution is injected into the abdomen of 5 engorged adult female cattle ticks (Boophilus microplus). The animals are transferred into dishes and kept in a climate-controlled room.
The activity is assessed after 7 days by laying of fertile eggs. Eggs whose fertility is not visible from the outside are stored in a climate-controlled cabinet until the larvae hatch after about 42 days. An efficacy of 100% means that none of the ticks has laid any fertile eggs; 0% means that all eggs are fertile.

[3] = tested on: larvae of the mustard beetle (Phaedon cochleariae); assay: Phaedon cochleariae spray test (PHAECO); conditions: Phaedon cochleariae, 168 h, read-out: effect (beetle larvae killed)
[4] = logP by HPLC on reversed-phase columns (C 18), EEC Directive 79/831 Annex V.A8; type: physicochemical; conditions: reversed-phase C18 HPLC column
Protocol: Calibration is carried out using unbranched alkan-2-ones (having from 3 to 16 carbon atoms) with known log P values (the log P values are determined by the retention times using linear interpolation between two successive alkanones).

[5] = application rate 500 g/ha, after 6 days
[6] = application rate 20 μg/animal, injection, after 7 days
[7] = pH 2.7, [a] LC-MS, acidic range, pH 2.7, 0.1% aqueous formic acid/acetonitrile, read-out: logP(HCOOH)
[8] = pH 7.8, [b] LC-MS, neutral range, pH 7.8, 0.001 molar aqueous ammonium bicarbonate/acetonitrile, read-out: logP(neutral)

SMILES	pest or weed control at 500 g/ha [1, 5] [%]	pest or weed control at 0.02 mg [2, 6] [%]	pest or weed control at 500 g/ha [3] [%]	chromatographic logP [4, 7]	chromatographic logP [4, 8]	pest or weed control at 500 g/ha [1] [%]	pest or weed control at 0.02 mg [2] [%]
CN/C(=N\c1cc([S+]([O-])CC(F)(F)F)c(C)cc1F)c1ccccn1 (stereo not shown) [Ib-58]	100	100	–	–	–	–	–
Cc1cc(F)c(/N=C(\N)C(Cl)(Cl)Cl)cc1[S+]([O-])CC(F)(F)F (stereo not shown) [Ib-40]	100	100	–	–	–	–	–
N/C(=N/c1cc([S+]([O-])CC(F)(F)F)c(Br)cc1Br)C(F)(F)F (stereo not shown) [Ib-18]	80	100	83	–	–	–	–
CN(C)/C(=N/c1cc([S+]([O-])CC(F)(F)F)c(Br)cc1F)C(F)(F)F (stereo not shown) [Ib-59]	100	100	–	–	–	–	–
Cc1cc(F)c(/N=C(\N)C(F)(F)Cl)cc1SCC(F)(F)F [Ia-115]	100	100	100	–	–	–	–
Cc1cc(F)c(/N=C(/c2cccnc2)N(C)C)cc1[S+]([O-])CC(F)(F)F (stereo not shown) [Ib-47]	100	100	–	–	–	–	–
Cc1cc(F)c(/N=C2\CCCN2C)cc1[S+]([O-])CC(F)(F)F (stereo not shown) [Ib-20]	100	100	100	–	–	–	–
Cc1cc(F)c(/N=C(\c2cccc(F)c2)N(C)C)cc1SCC(F)(F)F [Ia-120]	100	100	–	–	–	–	–
CN/C(=N\c1cc(SCC(F)(F)F)c(C)cc1F)c1ccncc1 [Ia-80]	100	100	–	–	–	–	–
CN/C(=N\c1cc([S+]([O-])CC(F)(F)F)c(Cl)cc1Cl)c1ccc(Cl)nc1 (stereo not shown) [Ib-89]	100	80	–	–	–	–	–
CN/C(=N/c1cc([S+]([O-])CC(F)(F)F)c(Br)cc1Br)C(F)(F)F (stereo not shown) [Ib-24]	100	80	–	–	–	–	–
Cc1cc(Cl)c(/N=C(\N)C(F)(F)C(F)(F)F)cc1[S+]([O-])CC(F)(F)F (stereo not shown) [Ib-35]	100	100	–	–	–	–	–
Cc1cc(F)c(/N=C(/Nc2ccc(Cl)cc2)C(F)(F)F)cc1SCC(F)(F)F [Ia-31]	100	–	100	4.73	4.67	–	–
Cc1cc(Cl)c(/N=C(/N)C(F)(F)F)cc1[S+]([O-])CC(F)(F)F (stereo not shown) [Ib-68]	100	100	100	–	–	–	–
Cc1cc(F)c(/N=C(\N)C2(F)CC2)cc1[S+]([O-])CC(F)(F)F (stereo not shown) [Ib-19, 1-Fluoro-N′-{2-fluoro-4-methyl-5-[(2,2,2-trifluoroethyl)sulfinyl]phenyl}cyclopropanecarboximidamide]	–	–	–	–	–	100	100
N/C(=N/c1cc([S@+]([O-])CC(F)(F)F)c(Cl)cc1Cl)C(F)(F)F [Ib-17]	100	100	100	–	–	–	–
Cc1cc(F)c(/N=C(\N)C2(F)CC2)cc1SCC(F)(F)F [Ia-27, 1-Fluoro-N′-{2-fluoro-4-methyl-5-[(2,2,2-trifluoroethyl)sulfanyl]phenyl}cyclopropanecarboximidamide]	–	–	100	1.2	–	100	100
Cc1cc(F)c(/N=C(\c2ccc(Cl)s2)N(C)C)cc1SCC(F)(F)F [Ia-149, 5-Chloro-N′-{2-fluoro-4-methyl-5-[(2,2,2-trifluoroethyl)sulfanyl]phenyl}-N,N-dimethylthiophene-2-carboximidamide]	90	–	100	2.11	4.89	–	–
N/C(=N/c1ccc(Cl)c(SCC(F)(F)F)c1)C(F)(F)F [Ia-204, N′-{4-Chloro-3-[(2,2,2-trifluoroethyl)sulfanyl]phenyl}-2,2,2-trifluoroethanimidamide]	90	–	83	3.1	3.1	–	–

SMILES	pest or weed control at 500 g/ha [1, 5] [%]	pest or weed control at 0.02 mg [2, 6] [%]	pest or weed control at 500 g/ha [3] [%]	chromatographic logP [4, 7]	chromatographic logP [4, 8]	pest or weed control at 500 g/ha [1] [%]	pest or weed control at 0.02 mg [2] [%]
Cc1cc(F)c(/N=C(\N)C2(C#N)CC2)cc1SCC(F)(F)F [Ia-118]	90	100	100	–	–	–	–
N/C(=N\c1cc(SCC(F)(F)F)c(Cl)cc1Cl)C1CC1 [Ia-139]	100	–	100	–	–	–	–
Cc1cc(C)c(SCC(F)(F)F)cc1/N=C(\N)c1cccnc1 [Ia-66]	100	100	–	–	–	–	–
Cc1cc(F)c(/N=C(\N)C(F)(F)C(F)(F)Cl)cc1[S+]([O-])CC(F)(F)F (stereo not shown) [Ib-38]	100	100	–	–	–	–	–
Cc1cc(F)c(/N=C(/c2ccc(Cl)cc2)N2CCC(F)(F)CC2)cc1[S+]([O-])CC(F)(F)F (stereo not shown) [Ib-143]	90	–	83	–	–	–	–
Cc1cc(F)c(/N=C(/c2ccc(Cl)cc2)N(C)C)cc1SCC(F)(F)F [Ia-50]	100	100	–	–	–	–	–
Cc1cc(F)c(/N=C(/Nc2ccc(C(F)(F)F)cc2)C(F)(F)F)cc1SCC(F)(F)F [Ia-45]	80	–	100	4.82	4.71	–	–
Cc1cc(Cl)c(/N=C(\N)C2(Cl)CC2)cc1SCC(F)(F)F [Ia-36]	100	–	100	–	–	–	–
CN/C(=N\c1cc(SCC(F)(F)F)c(C)cc1F)c1cccc(Cl)c1 [Ia-44]	100	100	–	–	–	–	–
Cc1cc(Cl)c(/N=C(\N)C2(Cl)CC2)cc1[S+]([O-])CC(F)(F)F (stereo not shown) [Ib-27]	100	–	100	–	–	–	–
Cc1cc(F)c(/N=C(\c2cccn2C)N(C)C)cc1SCC(F)(F)F [Ia-162, N′-{2-Fluoro-4-methyl-5-[(2,2,2-trifluoroethyl)sulfanyl]phenyl}-N,N,1-trimethyl-1H-pyrrole-2-carboximidamide]	100	–	100	1.67	4.11	–	–
N/C(=N\c1cc(SCC(F)(F)F)c(Cl)cc1Cl)c1ccncn1 [Ia-130]	100	–	83	–	–	–	–
CN/C(=N\c1cc([S+]([O-])CC(F)(F)F)c(C)cc1Cl)C(F)(F)F (stereo not shown) [Ib-56]	100	–	100	–	–	–	–
Cc1cc(F)c(/N=C(\N)c2ccc(Cl)nc2)cc1[S+]([O-])CC(F)(F)F (stereo not shown) [Ib-48]	100	100	–	–	–	–	–
Cc1cc(F)c(/N=C2\CCCN2C)cc1SCC(F)(F)F [Ia-39]	100	100	–	–	–	–	–
Cc1cc(F)c(/N=C(\N)C(F)F)cc1[S+]([O-])CC(F)(F)F (stereo not shown) [Ib-43]	100	–	100	–	–	–	–
Cc1cc(Cl)c([S+]([O-])CC(F)(F)F)cc1/N=C(\N)C(F)(F)F (stereo not shown) [Ib-85]	100	100	–	–	–	–	–
N/C(=N/c1cc(SCC(F)(F)F)c(Br)cc1Br)C(F)(F)F [Ia-28]	100	–	100	–	–	–	–
Cc1ccc(/N=C(/N)C(F)(F)F)cc1[S+]([O-])CC(F)(F)F (stereo not shown) [Ib-111]	90	–	100	–	–	–	–

Reference: patent US10051861B2, “N-arylamidine-substituted trifluoroethyl sulfide derivatives as acaricides and insecticides” (BAYER CROPSCIENCE AG, priority 2011, dated 2018)
